{
  "source": "patent US12433908B2",
  "about": "“Use of nicotinamide riboside, nicotinic acid riboside, and nicotinamide mononucleotide, reduced nicotinyl compounds, and nicotinoyl compound derivatives in infant formula for healthy development” (ChromaDex, Inc., priority 2016, dated 2025)",
  "key": {"milk proteins": {"tested_on": "milk proteins", "test": "WaterLOGSY NMR direct binding of 15N-labeled NR to milk proteins", "details": "increasing additions of milk", "source_text": "Whey protein fraction and casein protein have been identified as leading candidates to bind directly to and stabilize nicotinamide riboside (NR, I) in milk. The addition of these proteins in particular (either alone or in combination with other proteins) in order to stabilize nicotinamide riboside (NR, I) in liquid constitutes another embodiment of a method of delivery of the present invention. […] In this experiment, Water-Ligand Observed via Gradient Spectroscopy (WaterLOGSY NMR) was used to detect direct binding of stable, isotope-labeled (^15N) nicotinamide riboside (NR, I) to milk proteins. This is visualized as a concentration-dependent shift in the nicotinamide riboside (NR, I) spectra with increasing additions of milk. The concentric shapes shifts from left to right are the results of addition of no milk, 150 mL of milk, and […] of milk, respectively."}, "[1]": {"test": "Fecal and activity scores of piglets given NR solution", "format": "in vivo, piglets (Yorkshire/Hampshire crossbred)", "details": "for Activity Score: scale 4=alert, attentive to 1=very lethargic; for Fecal Score: scale 4=normal (solid) to 1=severe diarrhea (liquid)", "source_text": "Sixteen (n=16) Yorkshire/Hampshire crossbred piglets were obtained from the University of California, Davis Swine Teaching and Research Center and received on lactation day (“LD”) 14. Prior to arrive, the piglets were processed by the suppler between 1-3 days of age by administration of iron and an antibiotic ([…] for swine) as is common practice at the University of California, Davis Swine Facility. It is not common practice at the University of California, Davis Swine Facility to give a second dose of iron and antibiotics unless it becomes necessary. The piglets were from two litters (litters 15 and 17), weaned at 17 days of age, and randomly placed into one of two groups balanced for litter, sex, and weight. The animals were not acclimated to the facility at arrival and were subsequently acclimated to the test diet administration system. The piglets were weaned into a temperature-controlled room (approximately 27-29° C.) that contained 10 adjacent pens. The piglets were group-housed in the nursery room at the Swine Facility, which is an enclosed room with access restricted to trained personnel. The two groups were separated by one pen containing piglets of similar age. Each morning enough nicotinamide riboside (NR, I) in water solution was prepared for that day's dose administration according to the dose preparation protocol. At least 5 mL of prepared dose was reserved and immediately frozen after preparation each day for analysis of nicotinamide riboside (NR, I) for the purpose of confirming stability of the dose material. The doses were stored at refrigeration temperature while not in use. Nicotinamide riboside (NR, I) was dosed once per day in the morning and at the same time each day. Piglets in the control group received the same volume of plain water and were dosed on the same schedule. Starting on Day 1, animals in the nicotinamide riboside (NR, I) group were dosed once daily (in the morning) with 277 mg nicotinamide riboside (NR, I) per pig resuspended in water for seven days. After one week, animals were dosed once daily with 342 mg nicotinamide riboside (NR, I) per pig delivered in 2.5 mL for seven days. For Days 1 and 2, the nicotinamide riboside (NR, I) solution was prepared by resuspending 2770 mg nicotinamide riboside (NR, I) in 50 mL water, and 5 mL of this solution was delivered to each pig by squirting it into the back of the mouth using a 10 mL syringe with a piece of tubing attached to the end. To reduce the volume to more efficiently deliver the nicotinamide riboside (NR, I) solution, the 2770 mg was resuspended in 25 mL water and 2.5 mL of the solution was squirted into the back of the mouth of each pig using a 3 mL syringe for Days 3-7. For Days 8-14, 3420 mg nicotinamide riboside (NR, I) was resuspended in 25 mL water and 2.5 mL of this solution was delivered to each pig. Each day prior to dosing, 2.5 mL of the nicotinamide riboside (NR, I) (5 mL on Days 1 and 2) were placed into a separate tube and frozen. All animals were weighed at weaning (baseline) and after one and two weeks of nicotinamide riboside (NR, I) supplementation. Fecal and activity scores were recorded daily using the scales listed below. Weights and fecal scores were analyzed using a two-factor repeated measures ANOVA (mixed-model ANOVA) with p values<0.05 considered significant. The fecal consistency scale used is as follows: 4=normal (solid); 3=soft feces (semi-solid); 2=mild diarrhea (semi liquid); 1=severe diarrhea (liquid)."}, "[2]": {"details": "Wk 1, 277 mg/pig once daily oral"}, "[3]": {"details": "Wk 2, 342 mg/pig once daily oral Days 8-14"}},
  "data": [
    {"smiles": "NC(=O)c1ccc[n+]([C@@H]2O[C@H](CO)[C@@H](O)[C@H]2O)c1", "note": "[NR, Nicotinamide riboside]", "values": [
      {"measurement": "direct binding to milk proteins", "setting": "milk proteins", "value": "binds to proteins in milk"},
      {"measurement": "fecal scores, NR vs. control", "setting": "[1]; 2-week intervention", "value": "not statistically different"},
      {"measurement": "Activity Score", "setting": "[1]; Baseline, before dosing", "value": 4.0},
      {"measurement": "Fecal Score", "setting": "[1]; Baseline, before dosing", "value": "3.78 ± 0.39"},
      {"measurement": "Activity Score", "setting": "[1]; [2]", "value": 4.0},
      {"measurement": "Fecal Score", "setting": "[1]; [2]", "value": "2.93 ± 0.67"},
      {"measurement": "Activity Score", "setting": "[1]; [3]", "value": 4.0},
      {"measurement": "Fecal Score", "setting": "[1]; [3]", "value": "2.90 ± 0.60"}
    ]}
  ]
}
